Read-outs that look alike come from different tables or passages of the source.
How the values were obtained:
[1] = biological target: protein kinases (human kinome) (Homo sapiens, UniProt P51617); assay type: cell-based; conditions: IRAK1 (P51617)
[2] = biological target: protein kinases (human kinome) (Homo sapiens, UniProt P31751); assay type: cell-based; conditions: AKT2 (P31751)
[3] = biological target: protein kinases (human kinome) (Homo sapiens, UniProt Q9Y243); assay type: cell-based; conditions: AKT3 (Q9Y243-1)
[4] = biological target: protein kinases (human kinome) (Homo sapiens, UniProt Q9P1W9); assay type: cell-based; conditions: experiment wp076; for logFC: PIM2 (Q9P1W9)
[5] = biological target: protein kinases (human kinome) (Homo sapiens, UniProt P19525); assay type: cell-based; conditions: for logFC: EIF2AK2 (P19525)
[6] = biological target: protein kinases (human kinome) (Homo sapiens, UniProt O75676); assay type: cell-based; conditions: experiment wp146
[7] = biological target: protein kinases (human kinome) (Homo sapiens, UniProt O43353); assay type: cell-based; conditions: for logFC: RIPK2 (O43353-1)
[8] = biological target: T1, CRBN-degrader-kinase ternary complexes (Homo sapiens, UniProt Q96SW2); assay: FLAG-CRBN affinity purification TMT LC-MS3 (AP-MS) of degrader-mediated ternary complexes; assay type: cell-based, H. sapiens; conditions: for enriched proteins in the CRBN AP-MS: relative to SB1-G-187 and WH-10417-099
T1 construct: host or cells: HEK293T
Source text: An important aspect of protein degraders is the multifaceted nature of the molecule that enables heightened target selectivity due to differences in complementarity of target-ligase interactions, which is not a consideration when assessing selectivity of inhibitors for target engagement (Famaby el al., Nat Chem Biol 15:672-680 (2019)). For compound-induced degradation to be successful, productive ternary complex formation (ligase-degrader-POI) is necessary for proximity-mediated ubiquitin transfer onto the POI. […] Cellular affinity purification was performed, followed by mass spectrometry (AP-MS) of FLAG-tagged CRBN transiently overexpressed in HEK293T cells. FLAG-CRBN expressing cells were co-treated with proteosome inhibitor and 1 μM of each degrader for 5 h, and the degree of kinase target enrichment was compared to kinase degradation hits in matched global proteomics analysis experiments (FIG. 3A, FIG. 3C). The proteins identified as complexed with CRBN were enriched for kinases as well as their known binding partners such as Cyclin B (CDK1) and RASSF1 (STK4), consistent with the binding profiles of the assayed degraders. All kinases identified by AP-MS except CSNK1A1 were also detected in the HEK293T whole proteome degrader profiling experiment, allowing us to interrogate trends across 52 unique kinases (FIG. 4A; FIG. 11B). Limitations of this experiment include the potential loss of transient or weakly bound complexes in the enrichment and subsequent wash steps, the inherent noise associated with AP-MS relative to global proteomics analysis (Dunham et al., Proteomics 12:1576-1590 (2012): Yugandhar et al., Comput Struct Biotechnol J 17:805-811 (2019)) and the short time point of the experiment, which precludes detection of degradation events with slow kinetics. Therefore, the relationship between the formation of abundant, stable ternary complexes and rapid degradation was assessed.
HEK293T cells were seeded into 15 cm plates and cells were transiently transfected with 8 μg of pNTM-FLAG-CRBN construct using lipofectamine 2000. […] Cells were harvested with non-enzymatic CellStripper™ Dissociation reagent (Corning®), followed by three washes with cold PBS and snap freezing. Cell lysis was performed by the addition of IP lysis buffer (50 mM Tris. pH 7.5, 0.5% NP-40, 1 mM EDTA, 10% glycerol and 200 mM NaCl) containing protease inhibitor cocktail (cOmplete™) and relevant co-treatment (above), followed by end-over-end rotation at 4° C. for 3 hours. Lysate was clarified by centrifugation and salt concentration diluted to 100 mM NaCl with the addition of 0 mM NaCl lysis buffer (containing protease inhibitors and 1 μM of relevant compounds to retain temary complexes throughout binding). Lysate was added to 20 μL of pre-washed anti-FLAG M2 magnetic bead slurry (MilliporeSigma) and incubated with end-over-end rotation at 4° C. overnight. Beads were washed six times with 100 mM NaCl lysis buffer containing 1 μM of relevant degraders to retain ternary complexes throughout wash steps.
Proteins were eluted in a two-step elution with the addition of 0.1 M Glycine hydrochloride (MilliporeSigma) and elution buffered to pH 8.5 using 200 mM Tris buffer, pH 8.5. […] Protein pellets were resuspended in 50 μL of EPPs pH 8 and first digested with 2 μg LysC for 12 h at room temperature (RT), followed by 1 μg of trypsin for 6 hours at 37° C.

[9] = biological target: protein kinases (human kinome) (Homo sapiens, UniProt Q9H3S4); assay type: cell-based; conditions: TPK1 (Q9H3S4); experiment wp114
[10] = experiment wp118, direction down
[11] = experiment wp135, 4 hr, direction down
[12] = experiment wp105, direction down
[13] = experiment wp107, direction down
[14] = HEK293T, 1 μM, 5 h, proteasome inhibitor

Sequence of protein kinases (human kinome) (Homo sapiens, UniProt Q9Y243) (Q9Y243 whole entry): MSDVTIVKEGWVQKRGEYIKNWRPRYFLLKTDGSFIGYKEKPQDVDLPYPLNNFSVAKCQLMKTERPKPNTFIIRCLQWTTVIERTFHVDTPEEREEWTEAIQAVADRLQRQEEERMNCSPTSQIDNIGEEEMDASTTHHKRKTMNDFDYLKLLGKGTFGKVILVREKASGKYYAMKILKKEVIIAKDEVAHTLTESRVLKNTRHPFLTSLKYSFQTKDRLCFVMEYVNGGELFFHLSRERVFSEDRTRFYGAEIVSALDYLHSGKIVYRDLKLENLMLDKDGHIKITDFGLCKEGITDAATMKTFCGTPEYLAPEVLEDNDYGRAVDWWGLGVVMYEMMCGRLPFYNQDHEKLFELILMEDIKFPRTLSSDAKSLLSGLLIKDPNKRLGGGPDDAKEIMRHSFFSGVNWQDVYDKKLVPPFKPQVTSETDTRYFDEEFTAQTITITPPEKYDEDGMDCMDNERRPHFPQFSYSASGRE
Sequence of protein kinases (human kinome) (Homo sapiens, UniProt P19525) (P19525 whole entry): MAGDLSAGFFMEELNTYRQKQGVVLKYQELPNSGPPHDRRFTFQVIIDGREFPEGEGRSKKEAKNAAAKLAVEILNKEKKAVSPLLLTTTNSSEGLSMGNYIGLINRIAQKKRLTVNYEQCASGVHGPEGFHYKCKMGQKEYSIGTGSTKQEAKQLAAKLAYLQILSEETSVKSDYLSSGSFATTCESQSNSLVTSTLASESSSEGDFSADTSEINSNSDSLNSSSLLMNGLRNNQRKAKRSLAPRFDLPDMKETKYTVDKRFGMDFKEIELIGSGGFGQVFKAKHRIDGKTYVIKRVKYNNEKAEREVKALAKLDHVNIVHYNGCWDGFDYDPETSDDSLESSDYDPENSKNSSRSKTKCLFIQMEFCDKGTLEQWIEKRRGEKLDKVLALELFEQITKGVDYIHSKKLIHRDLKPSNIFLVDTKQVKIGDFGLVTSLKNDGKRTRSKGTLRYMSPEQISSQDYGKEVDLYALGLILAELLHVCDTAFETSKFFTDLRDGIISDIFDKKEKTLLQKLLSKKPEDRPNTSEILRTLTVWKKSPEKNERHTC
Sequence of protein kinases (human kinome) (Homo sapiens, UniProt P51617) (P51617 whole entry): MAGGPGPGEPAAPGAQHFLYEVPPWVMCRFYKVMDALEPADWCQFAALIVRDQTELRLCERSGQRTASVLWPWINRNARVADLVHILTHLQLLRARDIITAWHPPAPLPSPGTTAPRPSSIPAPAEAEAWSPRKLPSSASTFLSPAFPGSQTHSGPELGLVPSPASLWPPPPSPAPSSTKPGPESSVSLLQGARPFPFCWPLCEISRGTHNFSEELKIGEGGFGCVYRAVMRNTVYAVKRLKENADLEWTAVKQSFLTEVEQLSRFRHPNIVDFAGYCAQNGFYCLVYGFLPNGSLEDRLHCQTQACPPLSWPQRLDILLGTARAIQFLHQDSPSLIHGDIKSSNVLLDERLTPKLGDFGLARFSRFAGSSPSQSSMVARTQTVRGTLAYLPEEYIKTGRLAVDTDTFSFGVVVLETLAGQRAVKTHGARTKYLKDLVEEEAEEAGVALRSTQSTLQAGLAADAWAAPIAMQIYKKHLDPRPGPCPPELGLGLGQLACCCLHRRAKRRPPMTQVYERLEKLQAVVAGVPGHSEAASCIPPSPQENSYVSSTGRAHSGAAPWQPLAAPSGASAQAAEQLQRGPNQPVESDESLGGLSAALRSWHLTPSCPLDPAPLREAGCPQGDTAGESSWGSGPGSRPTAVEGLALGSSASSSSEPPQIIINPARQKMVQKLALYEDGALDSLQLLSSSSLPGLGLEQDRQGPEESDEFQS
Sequence of protein kinases (human kinome) (Homo sapiens, UniProt O43353) (O43353 whole entry): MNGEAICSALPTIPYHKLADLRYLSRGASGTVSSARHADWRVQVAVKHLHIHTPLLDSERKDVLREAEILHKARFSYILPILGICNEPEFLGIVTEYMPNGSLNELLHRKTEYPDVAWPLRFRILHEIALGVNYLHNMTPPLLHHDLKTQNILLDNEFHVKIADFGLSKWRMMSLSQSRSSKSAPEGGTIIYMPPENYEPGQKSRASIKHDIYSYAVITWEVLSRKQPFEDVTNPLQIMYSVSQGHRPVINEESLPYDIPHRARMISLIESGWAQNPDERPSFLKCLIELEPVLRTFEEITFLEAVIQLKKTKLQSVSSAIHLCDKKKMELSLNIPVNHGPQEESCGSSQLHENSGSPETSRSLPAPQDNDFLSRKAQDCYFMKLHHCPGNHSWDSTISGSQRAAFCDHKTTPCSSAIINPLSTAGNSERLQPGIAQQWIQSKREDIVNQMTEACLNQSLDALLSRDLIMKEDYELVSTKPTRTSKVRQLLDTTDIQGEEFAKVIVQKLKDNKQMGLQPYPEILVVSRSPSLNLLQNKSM
Sequence of protein kinases (human kinome) (Homo sapiens, UniProt Q9P1W9) (Q9P1W9 whole entry): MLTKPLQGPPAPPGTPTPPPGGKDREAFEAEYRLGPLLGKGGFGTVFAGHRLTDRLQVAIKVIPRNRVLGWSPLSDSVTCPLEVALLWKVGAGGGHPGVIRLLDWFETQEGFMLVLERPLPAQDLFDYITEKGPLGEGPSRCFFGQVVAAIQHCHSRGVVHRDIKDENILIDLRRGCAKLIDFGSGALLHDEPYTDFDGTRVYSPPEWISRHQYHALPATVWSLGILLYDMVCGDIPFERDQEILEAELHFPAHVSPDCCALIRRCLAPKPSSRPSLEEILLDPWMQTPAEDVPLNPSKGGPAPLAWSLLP
Sequence of protein kinases (human kinome) (Homo sapiens, UniProt P31751) (P31751 whole entry): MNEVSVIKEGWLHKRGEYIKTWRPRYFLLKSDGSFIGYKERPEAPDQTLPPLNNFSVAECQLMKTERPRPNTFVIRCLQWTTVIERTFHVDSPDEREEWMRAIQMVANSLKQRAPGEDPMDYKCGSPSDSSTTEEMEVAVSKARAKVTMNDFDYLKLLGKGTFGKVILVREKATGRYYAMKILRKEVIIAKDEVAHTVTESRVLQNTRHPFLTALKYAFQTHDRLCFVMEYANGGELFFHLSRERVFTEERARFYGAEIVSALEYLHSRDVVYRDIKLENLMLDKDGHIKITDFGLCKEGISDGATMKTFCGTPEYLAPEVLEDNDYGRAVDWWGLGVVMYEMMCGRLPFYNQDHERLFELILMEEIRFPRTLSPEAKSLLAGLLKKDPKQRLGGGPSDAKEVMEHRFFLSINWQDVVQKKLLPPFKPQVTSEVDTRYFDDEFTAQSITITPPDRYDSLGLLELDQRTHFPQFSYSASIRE
T1 sequence (Q96SW2 whole entry): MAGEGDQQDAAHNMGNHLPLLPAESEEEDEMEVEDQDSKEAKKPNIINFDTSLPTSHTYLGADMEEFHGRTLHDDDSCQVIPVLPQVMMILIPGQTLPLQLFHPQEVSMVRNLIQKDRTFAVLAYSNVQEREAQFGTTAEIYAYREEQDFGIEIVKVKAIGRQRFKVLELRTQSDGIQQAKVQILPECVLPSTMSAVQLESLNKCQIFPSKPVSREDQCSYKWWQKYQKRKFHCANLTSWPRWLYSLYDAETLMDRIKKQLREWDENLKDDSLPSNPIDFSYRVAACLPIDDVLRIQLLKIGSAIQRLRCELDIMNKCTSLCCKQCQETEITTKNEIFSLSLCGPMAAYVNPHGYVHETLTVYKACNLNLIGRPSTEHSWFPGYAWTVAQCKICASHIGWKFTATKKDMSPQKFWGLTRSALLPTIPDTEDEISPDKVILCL
T1 sequence (Q16531 whole entry partner): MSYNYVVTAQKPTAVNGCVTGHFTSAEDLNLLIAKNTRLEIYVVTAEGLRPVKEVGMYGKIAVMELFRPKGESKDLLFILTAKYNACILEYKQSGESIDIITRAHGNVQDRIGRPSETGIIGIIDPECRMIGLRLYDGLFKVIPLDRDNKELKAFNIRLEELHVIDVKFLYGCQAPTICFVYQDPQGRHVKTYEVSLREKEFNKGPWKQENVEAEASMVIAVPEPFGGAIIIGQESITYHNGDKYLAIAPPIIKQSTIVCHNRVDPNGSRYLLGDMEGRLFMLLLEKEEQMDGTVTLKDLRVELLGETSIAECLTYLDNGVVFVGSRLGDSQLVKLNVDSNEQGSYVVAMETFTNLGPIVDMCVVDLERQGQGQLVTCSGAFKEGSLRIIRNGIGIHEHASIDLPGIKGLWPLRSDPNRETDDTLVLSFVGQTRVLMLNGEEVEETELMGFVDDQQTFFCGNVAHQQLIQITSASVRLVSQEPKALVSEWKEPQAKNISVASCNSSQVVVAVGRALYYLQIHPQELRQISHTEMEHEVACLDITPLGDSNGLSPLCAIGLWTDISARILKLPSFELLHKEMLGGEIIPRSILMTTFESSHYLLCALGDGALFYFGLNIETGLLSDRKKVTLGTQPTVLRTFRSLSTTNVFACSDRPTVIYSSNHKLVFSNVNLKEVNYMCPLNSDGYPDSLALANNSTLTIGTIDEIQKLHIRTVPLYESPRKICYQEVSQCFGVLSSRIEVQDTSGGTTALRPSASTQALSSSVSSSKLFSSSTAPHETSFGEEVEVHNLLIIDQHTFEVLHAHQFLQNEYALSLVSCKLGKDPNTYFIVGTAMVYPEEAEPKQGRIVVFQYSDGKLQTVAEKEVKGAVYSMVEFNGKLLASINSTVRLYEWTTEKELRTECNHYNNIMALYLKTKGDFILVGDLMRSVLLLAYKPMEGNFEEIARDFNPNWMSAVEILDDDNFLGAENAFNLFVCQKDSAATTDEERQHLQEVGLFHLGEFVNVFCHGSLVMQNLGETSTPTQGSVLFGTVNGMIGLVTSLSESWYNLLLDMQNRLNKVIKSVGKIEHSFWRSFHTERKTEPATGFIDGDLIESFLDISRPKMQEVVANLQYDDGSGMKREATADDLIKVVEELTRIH
Sequence of protein kinases (human kinome) (Homo sapiens, UniProt Q9H3S4) (Q9H3S4 whole entry): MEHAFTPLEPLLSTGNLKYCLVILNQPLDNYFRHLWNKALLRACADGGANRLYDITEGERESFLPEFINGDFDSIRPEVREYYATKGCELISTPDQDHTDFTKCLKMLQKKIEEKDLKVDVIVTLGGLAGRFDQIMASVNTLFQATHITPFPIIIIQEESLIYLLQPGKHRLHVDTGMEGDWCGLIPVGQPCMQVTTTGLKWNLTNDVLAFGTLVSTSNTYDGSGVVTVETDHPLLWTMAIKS

Which results are given for `Cc1ccc(C(=O)Nc2ccc(CN3CCN(CCOCCOCCNC(=O)CNc4cccc5c4C(=O)N(C4CCC(=O)NC4=O)C5=O)CC3)c(C(F)(F)F)c2)cc1C#Cc1cnc2cccnn12` (stereo not drawn) [TL13.150]?
logFC ([1]; experiment wp081): −2.834; logFC ([1]; experiment wp081, direction down): −2.834

For `C[C@@H]1C[C@@H](O)c2ncnc(N3CCN(C(=O)[C@H](CNCCCCCCCCCCc4cccc5c4C(=O)N(C4CCC(=O)NC4=O)C5=O)c4ccc(Cl)cc4)CC3)c21` (stereo partly drawn) [INY.03.041.01], which logFC ([2]; experiment wp118) is on record?
The logFC was −2.777.

And the logFC [2, 10]?
The logFC was −2.777.

What about the logFC ([2]; experiment wp135, 4 hr) of the same compound?
The logFC was −1.739.

And the logFC [2, 11]?
The logFC was −1.739.

And the logFC ([3]; experiment wp118)?
Its logFC is −2.769.

What about the logFC [3, 10] of the same compound?
Its logFC is −2.769.

What about the logFC ([3]; experiment wp135, 4 hr) of the same compound?
Its logFC is −1.925.

And the logFC [3, 11]?
The logFC was −1.925.

Which results are given for `O=C1CCC(N2C(=O)c3cccc(NCCCCCCCCN4CCC(NC(=O)c5[nH]ncc5NC(=O)c5c(Cl)cccc5Cl)CC4)c3C2=O)C(=O)N1` (stereo not drawn) [MFH.5.126.1]?
logFC [4]: −3.019; logFC of PIM2 (Q9P1W9) [4]: −3.019

Which logFC ([5]; experiment wp117) does the source give for `CS(=O)(=O)Nc1cccc(-c2csc3cnc(Nc4ccc(N5CCN(CCCCCOc6cccc7c6C(=O)N(C6CCC(=O)NC6=O)C7=O)CC5)cc4)nc23)c1` (stereo not drawn) [DB0614, N-(3-(2-((4-(4-(5-((2-(2,6-Dioxopiperidin-3-yl)-1,3-dioxoisoindolin-4-yl)oxy)pentyl)piperazin-1-yl)phenyl)amino)thieno[3,2-d]pyrimidin-7-yl)phenyl)methanesulfonamide] here?
The logFC was −0.3221.

And the “logFC of EIF2AK2 (P19525)” value ([5]; Experiment wp117)?
The value was −0.3221.

Which logFC ([6]; RPS6KA4 (O75676)) does the source give for `Cc1cc(Nc2ncc(Br)c(Nc3cccc(F)c3C(N)=O)n2)ccc1S(=O)(=O)NCCOCCOCCOCCOCCNc1cccc2c1C(=O)N(C1CCC(=O)NC1=O)C2=O` (stereo not drawn) [TMX.02.174] here?
Its logFC is −1.5.

And the “logFC of RPS6KA4 (O75676)” value [6]?
The value was −1.5.

What does the source list for `Cc1ccc(C(=O)Nc2ccc(CN3CCN(CCCOCCOCCOCCNC(=O)COc4cccc5c4C(=O)N(C4CCC(=O)NC4=O)C5=O)CC3)c(C(F)(F)F)c2)cc1C#Cc1cnc2cccnn12` (stereo not drawn) [SB1.G.187]?
logFC of RIPK2 (O43353-1) ([7]; Experiment wp114): −0.8828; logFC ([7]; experiment wp105): −0.572; logFC ([7]; experiment wp114): −0.8828; logFC of RIPK2 (O43353-1) ([7]; experiment wp105): −0.572; logFC ([1]; experiment wp056): −1.578; logFC ([1]; experiment wp056, direction down): −1.578; logFC ([1]; experiment wp103): −1.504; logFC ([1]; experiment wp103, direction down): −1.504; logFC ([1]; experiment wp105): −1.404; logFC [1, 12]: −1.404; logFC ([1]; experiment wp107): −1.996; logFC [1, 13]: −1.996; logFC ([1]; experiment wp172): −1.572; logFC ([1]; experiment wp172, direction down): −1.572

`CC(C)(C)c1nc(-c2cccc(NS(=O)(=O)c3c(F)cccc3F)c2F)c(-c2ccnc(NCCOCCNC(=O)CCOCCOCCNc3cccc4c3C(=O)N(C3CCC(=O)NC3=O)C4=O)n2)s1` (stereo not drawn) [DD.03.106] was tested. Which logFC ([5]; experiment wp147, 2 uM) did it give?
Its logFC is −0.3545.

And the logFC ([5]; experiment wp147, 4 uM)?
Its logFC is −0.4042.

What about the “logFC of EIF2AK2 (P19525)” value ([5]; Experiment wp147, 2 uM) of the same compound?
Its value is −0.3545.

What about the “logFC of EIF2AK2 (P19525)” value ([5]; Experiment wp147, 4 uM) of the same compound?
Its value is −0.4042.

How did the “IRAK1: ternary complex formation with CRBN versus degradation” value [8, 14] turn out when `Cc1ccc(C(=O)Nc2ccc(CN3CCN(CCCOCCOCCOCCNC(=O)COc4cccc5c4C(=O)N(C4CCC(=O)NC4=O)C5=O)CC3)c(C(F)(F)F)c2)cc1C#Cc1cnc2cccnn12` (stereo not drawn) [SB1-G-187, N-(4-((4-(1-((2-(2,6-dioxopiperidin-3-yl)-1,3-dioxoisoindolin-4-yl)oxy)-2-oxo-6,9,12-trioxa-3-azapentadecan-15-yl)piperazin-1-yl)methyl)-3 (trifluoromethyl)phenyl)-3-(imidazo[1,2-b]pyridazin-3-ylethynyl)-4-methylbenzamide] was run?
The value was “complex formation and degradation are sometimes detected together”.

What about the “LYN: ternary complex formation with CRBN versus degradation” value [8, 14] of the same compound?
Its value is “complex formation and degradation are sometimes detected together”.

And the “YES1: ternary complex formation with CRBN versus degradation” value [8, 14]?
The value was “complex formation and degradation are sometimes detected together”.

How did the “logFC of RIPK2 (O43353-1)” value ([7]; Experiment wp172) turn out when `Cc1ccc(NC(=O)c2cccc(C(F)(F)F)c2)cc1N1Cc2cnc(Nc3ccc(N4CCN(Cc5cn(CCCCCOc6cccc7c6C(=O)N(C6CCC(=O)NC6=O)C7=O)nn5)CC4)nc3)nc2N(C)C1=O` (stereo not drawn) [DB0646, N-(3-(7-((6-(4-((1-(5-((2-(2,6-Dioxopiperidin-3-yl)-1,3-dioxoisoindolin-4-yl)oxy)pentyl)-1H-1,2,3-triazol-4-yl)methyl)piperazin-1-v)pyridin-3-yl)amino)-1-methyl-2-oxo-1,4-dihydropyrimido[4,5-d]pyrimidin-3(2H)-yl)-4-methylphenyl)-3-(trifluoromethyl)benzamide] was run?
The value was −0.4779.

And the logFC ([7]; experiment wp105)?
Its logFC is −0.4215.

And the logFC ([7]; experiment wp172)?
Its logFC is −0.4779.

What about the “logFC of RIPK2 (O43353-1)” value ([7]; experiment wp105) of the same compound?
Its value is −0.4215.

And the logFC [9]?
Its logFC is −1.144.

And the “YES1: ternary complex formation with CRBN versus degradation” value [8, 14]?
Its value is “complex formation and degradation are sometimes detected together”.

What about the “enriched proteins in the CRBN AP-MS” value [8] of the same compound?
Its value is “fewer enriched proteins”.

For `CC(C)S(=O)(=O)c1ccccc1Nc1nc(Nc2ccc(N3CCN(CCOCCNC(=O)CNc4cccc5c4C(=O)N(C4CCC(=O)NC4=O)C5=O)CC3)cc2)ncc1Cl` (stereo not drawn) [SK.3.91], which logFC ([2]; experiment wp105) is on record?
The logFC was −0.8722.

And the logFC [2, 12]?
The logFC was −0.8722.

And the logFC ([2]; experiment wp107)?
Its logFC is −0.4141.

What about the logFC [2, 13] of the same compound?
The logFC was −0.4141.

What about the logFC ([3]; experiment wp105) of the same compound?
Its logFC is −0.7783.

What about the logFC [3, 12] of the same compound?
The logFC was −0.7783.

With `CCc1cnn2c(N(Cc3ccc(N)nc3)C(=O)CCOCCOCCOCCNC(=O)CNc3cccc4c3C(=O)N(C3CCC(=O)NC3=O)C4=O)cc(N3CCCC[C@H]3CCO)nc12` (stereo partly drawn) [MFH.5.115.2] as the compound, how does the logFC [4] read?
Its logFC is −1.679.

And the “logFC of PIM2 (Q9P1W9)” value [4]?
Its value is −1.679.

What does the source list for `CC(C)S(=O)(=O)c1ccccc1Nc1nc(Nc2ccc(N3CCN(CCOCCNC(=O)CNc4cccc5c4C(=O)N(C4CCC(=O)NC4=O)C5=O)CC3)cc2)ncc1Cl` (stereo not drawn) [SK-3-91]?
YES1: ternary complex formation with CRBN versus degradation [8, 14]: complex formation does not predict degradation; enriched proteins in the CRBN AP-MS [8]: fewer enriched proteins

— patent US20240269139A1, “COMPOUNDS FOR TARGETED PROTEIN DEGRADATION OF KINASES” (DANA-FARBER CANCER INSTITUTE, INC., priority 2020, published 2024)
